Key:
MMP-1 [1] = assay: MMP-1 inhibition effect in fibroblasts, stimulation source TNF-α (MMP-1 ELISA normalized to CCK8 cell viability); type: cell-based; settings: TNF-α 10 ng/mL; for MMP-1 level with respect to the negative control group treated with TNF-α as 100: 0.1 or 1 ppm; for Normalized MMP-1 level relative to TNF-α control (100%): 48 hours
Description: Fibroblasts acquired from ATCC were transferred to a medium containing 10% (v/v) FBS and were cultured at 37° C. for 24 hours under the condition of 5% CO2. After replacing the medium with a serum-free medium, the cells were cultured for at least 6 hours. Then, after treating with 10 ng/mL TNF-α, as an intrinsic inflammatory factor causing intrinsic aging, and then with 0.1 ppm or 1 ppm paeoniflorin (Sigma-Aldrich), the cells were cultured for 48 hours. 48 hours later, the culture was separated partly and MMP-1 ELISA was conducted according to a method commonly employed in the art. A negative control group was not treated with paeoniflorin, and a positive control group was treated with 2 μM ATRA (all-trans retinoic acid) instead of the paeoniflorin. Subsequently, the remaining culture was separated partly and cell viability was measured by CCK8 (cell count kit 8) assay according to a method commonly employed in the art. The result was normalized to the result of the MMP-1 ELISA. Meanwhile, the MMP-1 inhibition effect by albiflorin was investigated in the same manner as the MMP-1 inhibition effect by paeoniflorin, except that the cells were treated with 0.1 ppm or 1 ppm albiflorin (Wako Chemical) instead of the 0.1 ppm or 1 ppm paeoniflorin. The MMP-1 inhibition effect by a combination of paeoniflorin and albiflorin was investigated in the same manner as the MMP-1 inhibition effect by paeoniflorin, except that the cells were treated with a 10:1 mixture of paeoniflorin and albiflorin (P+A) at 0.1+0.01 ppm or 1+0.1 ppm instead of the 0.1 ppm or 1 ppm paeoniflorin.

MMP-1 [2] = assay: MMP-1 inhibition effect in fibroblasts, stimulation source UV (UVB; MMP-1 ELISA normalized to CCK8 cell viability); type: cell-based; settings: 48 hours
Description: Fibroblasts acquired from ATCC were transferred to a medium containing 10% (v/v) FBS and were cultured at 37° C. for 24 hours under the condition of 5% CO2. After replacing the medium with a serum-free medium, the cells were cultured for at least 6 hours. Then, after treating with 30 mJ/cm^2 UVB, as an extrinsic stimulating factor causing extrinsic aging, and then with 0.1 ppm or 1 ppm paeoniflorin (Sigma-Aldrich), the cells were cultured for 48 hours. 48 hours later, the culture was separated partly and MMP-1 ELISA was conducted according to a method commonly employed in the art. A negative control group was not treated with paeoniflorin, and a positive control group was treated with 2 μM ATRA (all-trans retinoic acid) instead of the paeoniflorin.
Subsequently, the remaining culture was separated partly and cell viability was measured by CCK8 (cell count kit 8) assay according to a method commonly employed in the art. The result was normalized to the result of the MMP-1 ELISA.
Meanwhile, the MMP-1 inhibition effect by albiflorin was investigated in the same manner as the MMP-1 inhibition effect by paeoniflorin, except that the cells were treated with 0.1 ppm or 1 ppm albiflorin (Wako Chemical) instead of the 0.1 ppm or 1 ppm paeoniflorin.

[3] = 0.1 ppm, with respect to negative control
[4] = 1 ppm, with respect to negative control
[5] = UVB 30 mJ/cm^2, 0.1 ppm, with respect to negative control
[6] = UVB 30 mJ/cm^2, 1 ppm, with respect to negative control

Compound	MMP-1 level with respect to the negative control group treated with TNF-α as 100 (MMP-1 [1])	Normalized MMP-1 level relative to TNF-α control (100%) (MMP-1 [1]; [3]) [%]	Normalized MMP-1 level relative to TNF-α control (100%) (MMP-1 [1]; [4]) [%]	Normalized MMP-1 Inhibition (%) (MMP-1 [2]; [5])	Normalized MMP-1 Inhibition (%) (MMP-1 [2]; [6])	Normalized MMP-1 level relative to TNF-α control (100%) (MMP-1 [1]; positive control 2 μM ATRA) [%]	Normalized MMP-1 Inhibition (%) (MMP-1 [2]; UVB 30 mJ/cm^2, positive control 2 μM ATRA)
C[C@@]12C[C@@]3(O)O[C@@H](O1)[C@]1(COC(=O)c4ccccc4)[C@H]3C[C@@]12O[C@@H]1O[C@H](CO)[C@@H](O)[C@H](O)[C@H]1O [Paeoniflorin, paeoniflorin]	about 60%	69.34	66.49	−3.27	−22.03		
CC1=C(/C=C/C(C)=C/C=C/C(C)=C/C(=O)O)C(C)(C)CCC1 [Positive control, all-trans retinoic acid, reference compound]						48.75	25.72
C[C@]12C[C@@H](O)[C@@H]3C[C@@]1(O[C@@H]1O[C@H](CO)[C@@H](O)[C@H](O)[C@H]1O)[C@]3(COC(=O)c1ccccc1)C(=O)O2 [Albiflorin, albiflorin]	about 60%	63.25	59.44	−5.29	−10.96		

Reference: patent US11446226B2, “Composition for preventing or improving intrinsic aging comprising paeoniflorin or albiflorin” (Amorepacific Corporation, priority 2017, dated 2022)
